The source of these data is patent EP3431468B1, “USE OF ADIPONECTIN RECEPTOR AGONISTS IN TREATING DEPRESSION, ANXIETY AND NEUROINFLAMMATION” (CENTRE NATIONAL DE LA RECHERCHE SCIENTIFIQUE, priority 2017, dated 2019).

Test [1] deals with neurons of dorso-median raphe nucleus. Nature of the test: Whole-cell patch-clamp recordings on brain slices, current clamp. It counts as cell-based, mouse.
In the next test the test system is Kyn pathway. The experiment in a line: Kynurenine pathway metabolites measurement in plasma. The test is classed as in vivo. The conditions noted are these: long-term corticosterone-treated mice, chronic AdipoRon treatment. Here is the method:
Data were digitized at 5-10 kHz using a Digidata interface coupled to a microcomputer running pClamp 9 (Axon Instruments, USA). Current-clamp data were digitized at 0.5 kHz using the same interface. Potentials were digitally filtered at 1-3 kHz. Average data were expressed as mean ± SEM, n = number of neurons, N = number of mice. • Western blot analysis - Total proteins were extracted from mouse hypothalamus by homogenization in lysis buffer (50mM Tris-HCl, pH7.5, 150mM NaCl, 5mM EDTA containing 0.5% Triton X-100 and 0.5% sodium deoxycholate with a coktail of protease and phosphatase inhibitors). Equal amounts of total proteins (50µg) determined by the Bradford method (BioRad) were separated onto 12% SDS-PAGE, then transferred on nitrocellulose membrane (Schleicher & Schuell, Dassel, Germany). […] IFNγ, IL1β, IL6, and TNFα, levels were measured using an electro-chemo-luminescence (ECL)-based assay (U-plex, MesoScaleDiscovery) following manufacturer instructions. Results were standardized according to the protein concentration of each sample determined by the Bradford method. • Kynurenine pathway metabolites measurement - Plasma levels of L-kynurenin (L-Kyn), tryptophan (Trp), kynurenin acid (Kyn ac), 5-HT and 5-HIAA were determined as follows: 25µl of plasma was deproteinated with 150µl of cold MeOH. […]

Another test deals with T1, AdipoRl (Homo sapiens, UniProt Q96A54).
T1 sequence (Q96A54 1-375): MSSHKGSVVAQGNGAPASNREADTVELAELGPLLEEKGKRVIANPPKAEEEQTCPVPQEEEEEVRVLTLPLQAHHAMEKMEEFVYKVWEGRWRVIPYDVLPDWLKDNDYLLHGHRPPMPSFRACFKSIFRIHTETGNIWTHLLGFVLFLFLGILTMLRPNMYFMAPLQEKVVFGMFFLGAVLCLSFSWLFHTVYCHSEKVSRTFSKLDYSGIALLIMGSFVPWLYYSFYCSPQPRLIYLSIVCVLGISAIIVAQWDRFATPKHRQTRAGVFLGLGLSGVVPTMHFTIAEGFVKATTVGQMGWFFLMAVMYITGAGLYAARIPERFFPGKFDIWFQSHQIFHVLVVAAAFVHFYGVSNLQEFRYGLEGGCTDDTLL
The following applies: Okada-Iwabu, Yamauchi et al. 2013; cited from earlier work.

On to `O=C(COc1ccc(C(=O)c2ccccc2)cc1)NC1CCN(Cc2ccccc2)CC1` [AdipoRon, 2-(4-Benzoylphenoxy)-N-[1-(phenylmethyl)-4-piperidinyl]-acetamide], for which the action potential discharge entry in test [1] (1/7 presumed serotoninergic neuron, current clamp) was “no effect”. In addition, the membrane potential entry was “small depolarization” in test [1] (6 out of 7 presumed serotoninergic neurons, current clamp); “hyperpolarization” in test [1] (presumed non-serotoninergic neurons, 2/4); “no effect” in test [1] (presumed non-serotoninergic neurons, the other 2/4). In addition, the “action potential discharge frequency” value in test [1] (6 out of 7 presumed serotoninergic neurons, current clamp, N= 4 mice) is on record as “increase in action potential discharge frequency”. The “Kyn ac:L-Kyn ratio” value in the test on Kyn pathway is listed as “restoring the physiological”. Also, the “L-Kyn:Trp ratio” value in the test on Kyn pathway was “restoring the physiological”. Further, at AdipoRl, the “binding to adiponectin receptor” value was “bind”.
